According to patent US20020161528A1, “Tool for lipophilicity determination in drug discovery basic and neutral compounds” (Pfizer Inc., priority 2001, published 2002):
Where a name gives a salt, the structure may show the parent alone. Read-outs that look alike come from different tables or passages of the source.

Assays:
[1] = for log k′w / ElogDoct: pH 7.4
physchem = conditions: pH 7.4
[2] = pH 7.4, cited from earlier work
[3] = Reference logDoct at pH 7.4: literature shake-flask or countercurrent data, shake-vial and pH-metric determinations, averaged
[4] = Table 1, capacity factor extrapolated to 0% methanol, average of three to five determinations
[5] = Table 1, average of literature references only
[6] = Table 1, own shake-vial (Procedure A/B) and/or potentiometric determinations only
[7] = Table 1, from log k′w by Equation 1

Compound | log k′w [1, 4] | chromatographic logD (physchem) | logDoct [2, 5] | also measured
Cc1ncc([N+](=O)[O-])n1CCO [Metronidazole] | −0.08 | 0.12 | −0.02 | 
O=C(CCCN1CCC(O)(c2ccc(Cl)cc2)CC1)c1ccc(F)cc1 [Haloperidol] | 2.00 | 2.46 |  | 
O=C(NCC1CCCCN1)c1cc(OCC(F)(F)F)ccc1OCC(F)(F)F (stereo not drawn) [Flecainide] | 0.25 | 0.49 |  | 
C[C@]12CC[C@H]3[C@@H](CCC4=CC(=O)CC[C@@]43C)[C@@H]1CC[C@@H]2O [Testosterone] | 2.63 |  | 3.29 | Res (logDoct − ElogDoct) ([1]; Table 1): 0.12; ElogDoct [1]: 3.17
CNS(=O)(=O)Cc1ccc2[nH]cc(CCN(C)C)c2c1 [Sumatriptan] | −0.54 | -0.4 |  | logDoct ([3]; Table 1, average of own shake-vial/potentiometric determinations and literature references): −1.00
CN1C(=O)C(O)N=C(c2ccccc2Cl)c2cc(Cl)ccc21 (stereo not drawn) [Lormetazepam] | 2.27 | 2.77 | 2.72 | Res (logDoct − ElogDoct) ([1]; Table 1): −0.05
Cc1cccc(N(C)C(=S)Oc2ccc3ccccc3c2)c1 [Tolnaftate] | 4.53 |  |  | 
C[C@]12CCC(=O)C=C1CC[C@@H]1[C@@H]2[C@@H](O)C[C@@]2(C)[C@H]1CC[C@]2(O)C(=O)CO [Hydrocortisone] |  | 1.49 |  | 
Oc1cccc(Cl)c1 [3-Chlorophenol] | 2.58 | 3.11 |  | Res (logDoct − ElogDoct) ([1]; Table 1): −0.61
O=C1CN=C(c2ccccn2)c2cc(Br)ccc2N1 [Bromazepam] | 1.04 | 1.38 | 1.65 | Res (logDoct − ElogDoct) ([1]; Table 1): 0.27
c1ccc2ccccc2c1 [Naphthalene] | 3.03 | 3.62 |  | 
Clc1cccc(Cl)c1N=C1NCCN1 [Clonidine] | 0.07 | 0.29 | 0.62 | 
CN1C(=O)CN=C(c2ccccc2)c2cc(Cl)ccc21 [Diazepam] |  |  |  | log k′w [1]: 2.46
CC/C(=C(/CC)c1ccc(O)cc1)c1ccc(O)cc1 [Diethylstilbestrol] | 4.12 | 4.85 | 5.07 | 
C[C@@H]1C[C@H]2[C@@H]3CCC4=CC(=O)C=C[C@]4(C)[C@@]3(F)[C@@H](O)C[C@]2(C)[C@@]1(O)C(=O)CO [Dexamethasone] |  | 2.03 | 1.83 | 
CN(C)CCC(c1ccc(Cl)cc1)c1ccccn1 (stereo not drawn) [Chlorpheniramine] | 1.20 |  |  | 
CN(C)CCOC(c1ccccc1)c1ccccc1 [Diphenhydramine] | 1.04 |  |  | 
O=[N+]([O-])c1ccc(/C=N/O)o1 [Nifuroxime] | 1.14 | 1.49 | 1.28 | 
COc1ccc([C@@H]2Sc3ccccc3N(CCN(C)C)C(=O)[C@@H]2OC(C)=O)cc1 [Diltiazem] | 1.59 | 2 |  | logDoct [3, 6]: 2.06
CC(=O)Nc1ccc(O)cc1 [Acetominophen] | 0.15 |  |  | Res (logDoct − ElogDoct) ([1]; Table 1): 0.13; ElogDoct [1, 7]: 0.38
CN1CCCC1c1cccnc1 (stereo not drawn) [Nicotine] |  | 0.23 |  | log k′w [1]: 0.02; logDoct [3, 6]: 0.40
Clc1ccccc1C(c1ccccc1)(c1ccccc1)n1ccnc1 [Clotrimazole] | 4.03 | 4.75 |  | 

Compound | log k′w [1, 4] | chromatographic logD (physchem) | logDoct [2, 5] | also measured
CN1CCN(CC(=O)N2c3ccccc3C(=O)Nc3cccnc32)CC1 [Pirenzepine] | −0.15 | 0.04 |  | logDoct [3, 6]: −0.61
Brc1cnc2ccccc2c1 [3-Bromoquinoline] | 2.53 |  | 3.03 | 
COC(=O)[C@H]1[C@@H](OC(=O)c2ccccc2)C[C@@H]2CC[C@H]1N2C [Cocaine] |  | 0.48 | 1.05 | Res (logDoct − ElogDoct) ([1]; Table 1): 0.57
CCCCc1oc2ccccc2c1C(=O)c1cc(I)c(OCCN(CC)CC)c(I)c1 [Amiodarone] | 5.10 |  |  | 
COc1ccc2[nH]c([S+]([O-])Cc3ncc(C)c(OC)c3C)nc2c1 (stereo not drawn) [Omeprazole] |  | 2 |  | 
CNC(=C[N+](=O)[O-])NCCSCc1ccc(CN(C)C)o1 [Ranitidine] |  | -0.5 |  | logDoct [3, 6]: −0.29
NC(=O)N1c2ccccc2C=Cc2ccccc21 [Carbamazepine] | 1.40 |  | 2.19 | 
C=CCc1ccccc1OCC(O)CNC(C)C (stereo not drawn) [Alprenolol] | 0.37 | 0.62 |  | 
CCCCNc1ccc(C(=O)OCCN(C)C)cc1 [Tetracaine] | 1.70 | 2.12 | 2.29 | Res (logDoct − ElogDoct) ([1]; Table 1): 0.17
C[C@]12C=CC(=O)C=C1CC[C@@H]1[C@@H]2C(=O)C[C@@]2(C)[C@H]1CC[C@]2(O)C(=O)CO [Prednisone] | 0.90 | 1.22 |  | 
c1ccc(-c2ccc(C(c3ccccc3)n3ccnc3)cc2)cc1 (stereo not drawn) [Bifonazole] | 4.33 | 5.09 | 4.77 | 
CC(=O)c1ccccc1 [Acetophenone] | 1.21 | 1.57 |  | 
CN1CCN(C2=Nc3cc(Cl)ccc3Nc3ccccc32)CC1 [Clozapine] |  | 3.38 |  | 
CC(C)NCC(O)c1ccc(NS(C)(=O)=O)cc1 (stereo not drawn) [Sotalol] | −1.47 | -1.45 |  | 
CN/C(=N/CCSCc1nc[nH]c1C)NC#N [Cimetidine] | 0.17 |  |  | logDoct [3, 6]: 0.35
CS(=O)(=O)c1ccc([C@@H](O)[C@@H](CO)NC(=O)C(Cl)Cl)cc1 [Thiamphenicol] | −0.05 | 0.15 | −0.27 | 
CN1CC[C@]23c4c5ccc(O)c4O[C@H]2[C@@H](O)C=C[C@H]3[C@H]1C5.O=S(=O)(O)O [Morphine sulfate] |  |  |  | log k′w [1]: 0.10
Nc1nc(N)c2nc(-c3ccccc3)c(N)nc2n1 [Triamterene] | 0.71 | 1.01 |  | 
CC(=O)CCCCn1c(=O)c2c(ncn2C)n(C)c1=O [Pentoxifylline] | 0.03 | 0.24 | 0.29 | 
CSc1ncnc2c1ncn2[C@@H]1O[C@H](CO)[C@@H](O)[C@H]1O [Methylthioinosine] | 0.25 |  |  | Res (logDoct − ElogDoct) ([1]; Table 1): −0.40; ElogDoct [1, 7]: 0.49; logDoct [2]: 0.09
Cc1nc2n(c(=O)c1CCN1CCC(c3noc4cc(F)ccc34)CC1)CCCC2 [Risperidone] | 1.23 | 1.59 |  | Res (logDoct − ElogDoct) ([1]; Table 1): 0.45
COC1=CC(=O)C[C@@H](C)[C@]12Oc1c(Cl)c(OC)cc(OC)c1C2=O [Griseofulvin] | 1.73 | 2.16 | 2.18 | 

Compound | log k′w [1, 4] | chromatographic logD (physchem) | logDoct [2, 5] | also measured
CCOC(=O)N1CCC(=C2c3ccc(Cl)cc3CCc3cccnc32)CC1 [Loratadine] | 4.02 |  |  | 
COCCc1ccc(OCC(O)CNC(C)C)cc1 (stereo not drawn) [Metoprolol] | −0.73 | -0.62 |  | 
NS(=O)(=O)c1cc(C2(O)NC(=O)c3ccccc32)ccc1Cl (stereo not drawn) [Chlorthalidone] | 0.76 | 1.06 |  | 
CC(C)(C)NCC(O)c1cc(O)cc(O)c1 (stereo not drawn) [Terbutaline sulfate] | −1.51 | -1.49 | −1.35 | 
C[C@]12C=CC(=O)C=C1CC[C@@H]1[C@@H]2[C@@H](O)C[C@@]2(C)[C@H]1CC[C@]2(O)C(=O)CO [Prednisolone] | 1.24 | 1.6 |  | 
CC(=O)OCC(=O)[C@@]1(O)CC[C@H]2[C@@H]3CCC4=CC(=O)CC[C@]4(C)[C@H]3[C@@H](O)C[C@@]21C [Hydrocortisone-21 acetate] | 1.64 |  |  | Res (logDoct − ElogDoct) ([1]; Table 1): 0.13; ElogDoct [1, 7]: 2.06; logDoct [2]: 2.19
Oc1cc(Cl)cc(Cl)c1 [3,5-Dichiorophenol] | 3.44 |  |  | Res (logDoct − ElogDoct) ([1]; Table 1): −0.40; ElogDoct [1]: 4.08; logDoct [2]: 3.68
CCN(CC)CCNC(=O)c1ccc(N)cc1 [Procainamide] | −0.69 | -0.57 |  | 
CN(C)CCCN1c2ccccc2Sc2ccc(Cl)cc21 [Chlorpromazine] | 2.66 | 3.2 |  | 
C[C@]12CC[C@@H]3c4ccc(O)cc4CC[C@H]3[C@@H]1CC[C@@H]2O [Estradiol] |  | 3.9 |  | 
CN1[C@@H]2CC[C@H]1C[C@@H](OC(=O)C(CO)c1ccccc1)C2 (stereo partly drawn) [Atropine] |  |  |  | log k′w [1]: −0.33
CCN(CC)CC(=O)Nc1c(C)cccc1C [Lidocaine] | 0.96 |  |  | 
CCOC(=O)C1=C(COCCN)NC(C)=C(C(=O)OC)C1c1ccccc1Cl (stereo not drawn) [Amlodipine] |  | 2.15 |  | 
CSc1ccc2c(c1)N(CCC1CCCCN1C)c1ccccc1S2 (stereo not drawn) [Thioridazine] | 2.88 | 3.45 |  | 
CN(C)CCCN1c2ccccc2CCc2ccccc21 [Imipramine] | 1.56 |  |  | 
O=C1Nc2ccc(Cl)cc2C(c2ccccc2Cl)=NC1O (stereo not drawn) [Lorazepam] | 2.30 | 2.8 |  | Res (logDoct − ElogDoct) ([1]; Table 1): −0.29
COc1ccc2c3c1O[C@H]1[C@@H](O)C=C[C@H]4[C@@H](C2)N(C)CC[C@@]341 [Codeine] | 0.16 | 0.39 | 0.23 | Res (logDoct − ElogDoct) ([1]; Table 1): −0.16
c1ccc2ncccc2c1 [Quinoline] | 1.52 | 1.92 |  | logDoct [2]: 2.03
NC(=O)N/N=C/c1ccc([N+](=O)[O-])o1 [Nitrofurazone] | 0.29 | 0.53 | 0.23 | 
CNC(=C[N+](=O)[O-])NCCSCc1csc(CN(C)C)n1 [Nizatidine] | −0.13 | 0.06 | −0.52 | 
